From PubChem BioAssay (NCI)
Several values for one entry are separate records, joined by “and”; a condition that tells them apart may be missing. Equal entries are not always repeated.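 Dose response: 5 concentrations. Exposure: 48 h. Format: 96-well plates. Endpoint: linear interpolation; highest concentration if not reached. Abbreviation: GI50, concentration required for 50% inhibition of growth. Definition used: TGI = concentration required for complete inhibition of growth.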

Assays:
Assay in all cases: NCI-60 cell line screen, 48 h
XF 498 CNS = system: XF 498 CNS
DLD-1 colon = system: DLD-1 colon
HCT-15 colon = system: HCT-15 colon
KM20L2 colon = system: KM20L2 colon
EKVX NSCLC = system: EKVX NSCLC
MOLT-4 leukemia = system: MOLT-4 leukemia
OVCAR-8 ovarian = system: OVCAR-8 ovarian
SK-OV-3 ovarian = system: SK-OV-3 ovarian
MCF7 breast = system: MCF7 breast
T-47D breast = system: T-47D breast

Row | SMILES | TGI (XF 498 CNS) [µM] | TGI (DLD-1 colon) [µM] | TGI (HCT-15 colon) [µM] | TGI (KM20L2 colon) [µM] | TGI (EKVX NSCLC) [µM] | TGI (MOLT-4 leukemia) [µM] | TGI (OVCAR-8 ovarian) [µM] | TGI (SK-OV-3 ovarian) [µM] | TGI (MCF7 breast) | TGI (T-47D breast) [µM] | GI50 (XF 498 CNS) [µM] | GI50 (DLD-1 colon) [µM] | GI50 (SK-OV-3 ovarian) [µM] | GI50 (HCT-15 colon) [µM] | GI50 (KM20L2 colon) [µM] | GI50 (EKVX NSCLC) [µM] | GI50 (MOLT-4 leukemia) [µM] | GI50 (OVCAR-8 ovarian) [µM] | GI50 (MCF7 breast) [µM] | GI50 (T-47D breast) [µM]
1 | CCOC(=O)C(C)(C)Oc1ccc2c(C)c(-c3ccc(Cl)cc3)c(=O)oc2c1 | 83.9 | > 100 | > 100 | > 100 | > 100 | > 100 | > 100 | – | – | – | – | – | – | – | – | – | – | – | – | –
2 | O=C(N/N=C1/C(=O)N(c2ccc(Cl)cc2Cl)C(=O)C(=O)C1c1nc2ccccc2o1)c1ccccc1O (stereo unspecified) | 75.2 | > 100 | > 100 | > 100 | > 100 | > 100 | > 100 | > 100 | – | – | – | – | – | – | – | – | – | – | – | –
3 | O=C1[C@@H]2C3c4ccccc4C([C@@H]2C(=O)N1c1ccccc1)S3(=O)=O | > 100 | > 100 | > 100 | > 100 | > 100 | > 100 | > 100 | > 100 | – | – | – | – | – | – | – | – | – | – | – | –
4 | c1ccc(SC2CCSc3ccccc3C2Sc2ccccc2)cc1 (stereo unspecified) | > 100 | > 100 | > 100 | > 100 | > 100 | > 100 | > 100 | – | – | – | – | – | – | – | – | – | – | – | – | –
5 | O=c1[nH]cc(COCCO)c(=O)[nH]1 | > 100 | > 100 | > 100 | > 100 | > 100 | > 100 | > 100 | > 100 | – | – | – | – | – | – | – | – | – | – | – | –
6 | O=C(CSc1nnc(-c2ccc(N=Cc3ccc(Cl)cc3)cc2)o1)Nc1ccc(Cl)cc1 | > 100 | – | > 100 | > 100 | > 100 | > 100 | > 100 | > 100 | – | – | – | – | – | – | – | – | – | – | – | –
7 | CC(=O)O[C@H]1CCC2[C@@H]3CCC4=C(O)c5nocc5C[C@]4(C)C3CC[C@@]21C (stereo partly specified) | > 100 | – | > 100 | > 100 | > 100 | > 100 | > 100 | > 100 | – | – | – | – | – | – | – | – | – | – | – | –
8 | Cc1ccc(Cn2c(C)nc3c2C(=O)c2ccccc2C3=O)cc1 | 47.6 | > 100 | 60 | > 100 | > 100 | > 100 | 28 | 45.6 | – | – | – | – | – | – | – | – | – | – | – | –
9 | O=C(NCCCCN=c1cccccc1NCCCCNC(=O)OCc1ccccc1)OCc1ccccc1 | 18.6 | 43.6 | 23.2 | 26.1 | 81.4 | 38.1 | 47.7 | 45.5 | – | – | – | – | – | – | – | – | – | – | – | –
10 | COc1ccc(/C(=N\NC(=O)C(N)=O)C(c2ccc(OC)cc2)C2(O)C(=O)Nc3c(Cl)cccc32)cc1 (stereo unspecified) | > 100 | > 100 | – | > 100 | > 100 | > 100 | > 100 | – | – | – | – | – | – | – | – | – | – | – | – | –
11 | COC1C(O)=C2C(=O)O/C(C)=C/C=C/C=C/C=C\CC(c3ccccc3)NC(=O)\C=C/C=C\C=C\C=C\[C@@]2(C)[C@@H]1O (stereo partly specified) | 0.304 | 0.147 | 0.0834 | 0.165 | 0.279 | 0.177 | 0.243 | 0.188 | 0.0175 µM | 0.158 | – | – | – | – | – | – | – | – | – | –
12 | CCCCCCC[CH2][Sn]1([CH2]CCCCCCC)[O]C(=O)c2cccnc2[S]1 | > 100 | > 100 | > 100 | > 100 | > 100 | > 100 | > 100 | > 100 | – | – | 30.8 | > 100 | > 100 | > 100 | > 100 | > 100 | > 100 | > 100 | – | –
13 | Cc1c(Cl)cccc1N1C(=O)C(Cl)=C(Cl)C1=O | > 100 | > 100 | > 100 | > 100 | > 100 | 28.1 | > 100 | > 100 | – | – | – | – | – | – | – | – | – | – | – | –
14 | Cc1ccc(NC(=O)C2C(=O)N(c3ccc(C)c(C)c3)C(=O)C2N=N)cc1C (stereo unspecified) | > 100 | > 100 | > 100 | > 100 | > 100 | > 100 | > 100 | > 100 | – | – | – | – | – | – | – | – | – | – | – | –
15 | O=C(Nc1cc(Cl)ccc1Cl)c1cc2cccc(Cl)c2oc1=O | > 100 | > 100 | > 100 | > 100 | > 100 | > 100 | > 100 | > 100 | – | – | – | – | – | – | – | – | – | – | – | –
16 | CCc1c(OC(C)=O)c2c(NC3OC(COC(C)=O)C(OC(C)=O)C(OC(C)=O)C3OC(C)=O)nc(OC)nc2oc1=O (stereo unspecified) | > 100 | > 100 | > 100 | > 100 | > 100 | > 100 | > 100 | > 100 | – | – | – | – | – | – | – | – | – | – | – | –
17 | CCc1cccc(C)c1NC(=O)C(=O)Cc1nc2ccccc2o1 | > 100 | > 100 | > 100 | > 100 | > 100 | > 100 | > 100 | > 100 | – | – | – | – | – | – | – | – | – | – | – | –
18 | COC(=O)[C@]1(C)CCCC2(C)C1CC[C@H]1C=C(C)[C@H]3CCC12C3 (stereo partly specified) | > 100 | > 100 | > 100 | > 100 | – | > 100 | > 100 | > 100 | – | – | – | – | – | – | – | – | – | – | – | –
19 | N=c1ccn2c(n1)OC1C(O)C(CO)OC12 (stereo unspecified) | > 1000 | > 1000 | > 1000 | > 562 | > 1000 | – | > 1000 | > 696 | 361 µM and > 100 µM | > 1000 | – | – | 5.43 | – | – | > 100 | 0.016 | 0.481 | 0.0703 | 16.8
20 | CCOc1ccc2c(c1)[n+]([O-])c(-c1ccccc1Cl)c(N)[n+]2[O-] | > 100 | > 100 | – | > 100 | > 100 | > 100 | > 100 | > 100 | – | – | – | – | – | – | – | – | – | – | – | –
21 | O=[N+]([O-])c1ccc(-n2nnc(C3=NCCN3)c2-c2ccc(Cl)cc2)cc1 | > 100 | > 100 | > 100 | > 100 | > 100 | > 100 | > 100 | > 100 | – | – | – | – | – | – | – | – | – | – | – | –
22 | COc1cccc(/C=N/[N-]C(=O)c2ccncc2)c1[O-].[Cu+2].[OH3+] | > 100 | > 100 | > 100 | > 100 | > 100 | > 100 | > 100 | 82 | – | – | > 100 | 52.6 | 15.1 | 62.8 | 47.9 | 58 | 35.2 | 22 | – | –
23 | Cc1ccc(S(=O)(=O)N/N=C/c2oc(-c3ccncc3)c(-c3ccncc3)c2[N+](=O)[O-])cc1 | > 100 | > 100 | > 100 | > 100 | > 100 | > 100 | > 100 | > 100 | – | – | – | – | – | – | – | – | – | – | – | –
